Legend:
mononuclear cells = conditions: 6.25 mg daily for 1 week; cited from earlier work
neutrophils = conditions: 6.25 mg daily for 1 week; cited from earlier work
human neutrophils = test: Neutrophil oxidative burst, PMA-stimulated, lucigenin chemiluminescence; format: cell-based; conditions: human neutrophils in vitro, PMA stimulus
Protocol: (§1) Isolation of neutrophils: Neutrophils were isolated from 30 mL freshly drawn heparinized whole blood, after dextran sedimentation of erythrocytes for 30 min. The leucocyte rich plasma was layered over an equal volume of Percoll (Sigma) and centrifuged at 400×g for 15 min. Erythrocytes, contaminating the neutrophil pellet, were destroyed by osmotic lysis with 0.87% NH4Cl (pH 7.0). Neutrophils were washed with PBS (pH 7.1) and centrifuged at 200×g for 10 min. Cells were resuspended in fresh HBS (containing 0.8 g NaCl, 0.4 g KCl, 0.06 g Na2HPO4×2 H2O, 0.06 g KH2PO4, 0.1 g MgSO4×7H2O and 1 g glucose in 1000 mL of distilled water; pH adjusted to 7.4 by 7% NaHCO3) and counted before use.
Measurement of neutrophil oxidative burst: Production of reactive oxygen species by neutrophils was recorded by chemiluminescent analysis. Chemiluminescence measurements were performed with Bio-Orbit 1251 Luminometer connected to a personal computer with special programs for the assays (Bio-Orbit, Turku, Finland). The protocol for each assay included automatic pipetting of the appropriate reagent that initiated the reaction in all cuvettes. Six or twelve samples were analyzed simultaneously, depending on the assay. Disposable plastic cuvettes were used throughout.
One millilitre of cell suspension (final cell count 10^6 cells/mL) was placed in plastic cuvettes, and the level of resting chemiluminescence was recorded before addition of the stimulus; production of reactive oxygen by neutrophils (oxidative burst) was stimulated by addition of phorbol-myristate-acetate (PMA). The buffer (HBS, pH 7.4) was pipetted in a volume of 0.930 mL in the luminometer cuvette. Test compounds were added to incubation mixtures in a small volume (2% of total incubation volume) of ethanol. […] Fifty microliters of 5 mM lucigenin was added, and the reaction was initiated by 0.020 mL of 0.1 mM PMA at 37° C. The chemiluminescence was measured for about 45 min at 1 min cycles and the area under curve (integral) was calculated. […] Based on these experiments, a IC50-value (concentration that under these circumstances produced a 50% inhibition of neutrophil oxidative burst) was determined.

Myeloperoxidase = target: T1, Myeloperoxidase (Homo sapiens, UniProt P05164); test: Myeloperoxidase activity, tetramethylbenzidine oxidation; format: biochemical; conditions: human neutrophils in vitro
T1 construct: And Myeloperoxidase Activity Of Human Neutrophils In Vitro; endogenous in cells; host or cells: human neutrophils isolated from freshly drawn heparinized whole blood
T1 sequence (P05164 279-745 limits assumed): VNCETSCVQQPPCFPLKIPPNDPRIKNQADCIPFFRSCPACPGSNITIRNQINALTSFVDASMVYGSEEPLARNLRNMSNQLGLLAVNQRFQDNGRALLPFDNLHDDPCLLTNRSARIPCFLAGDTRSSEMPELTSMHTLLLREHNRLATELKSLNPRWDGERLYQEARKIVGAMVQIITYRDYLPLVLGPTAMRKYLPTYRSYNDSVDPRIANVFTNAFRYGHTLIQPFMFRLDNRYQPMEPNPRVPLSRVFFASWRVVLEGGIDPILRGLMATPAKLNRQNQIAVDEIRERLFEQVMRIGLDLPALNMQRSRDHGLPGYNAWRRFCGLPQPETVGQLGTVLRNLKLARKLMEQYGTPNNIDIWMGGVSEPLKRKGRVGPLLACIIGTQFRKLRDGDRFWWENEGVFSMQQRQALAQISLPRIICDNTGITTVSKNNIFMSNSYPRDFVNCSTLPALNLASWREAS
T1 sequence (P05164 165-273 limits assumed): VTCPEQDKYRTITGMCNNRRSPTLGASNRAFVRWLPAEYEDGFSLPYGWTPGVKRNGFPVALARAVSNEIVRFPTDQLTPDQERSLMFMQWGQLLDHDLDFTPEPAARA
Protocol: as §1
Myeloperoxidase activity: Myeloperoxidase activity was determined by the method of Suzuki et al. (Suzuki, K., Ota, H., Sasagawa, S., Sakatoni, T., Fujikura, T., Ann Biochem 132:345–352, 1983) in which the enzyme catalyzes the oxidation of 3,3′,5,5′-tetramethylbenzidine by H2O2 to yield a blue chromogen with a maximum wavelength of 655 nm. Studies on myeloperoxidase inhibition in vitro were performed by adding test compounds to incubation mixtures in a small volume (2% of incubation volume) of ethanol. […] Based on these experiments, a IC50-value (concentration that under these circumstances produced a 50% inhibition of myeloperoxidase activity) was determined.

[1] = system: Fas receptor on Jurkat cells; test: Fas receptor surface (FasR) expression, immunostaining; format: cell-based, human; conditions: 50 or 100 μM, versus untreated control
Protocol: Effect of lignans on Fas receptor surface (FasR) expression: The experiment was performed essentially as described in the literature (Brunner et al., Nature 373, 441–443, 1995). The surface expression of the FasR was measured by immunostaining alive Jurkat cells with an monoclonal anti-FasR antibody (Medical Biological Laboratories Co. Ltd, Japan, clone CH-11) and an anti-mouse antibody labelled with FITC (Alexis Biochemicals Ltd, USA) according to manufacturers instructions. The fluorescence intensity equals the amount of antibody bound to the FasR on the cell membrane.

Monocytes [2] = test: LPS-induced TNF-α production by monocytes, ELISA; format: cell-based, human; conditions: 100 μM, 24 h pre-incubation, LPS 1 μg/ml for 48 h; IL-10 100 U/ml
Protocol: Monocytes were isolated from human peripheral blood mononuclear cells by magnetic sorting. The cells were pre-incubated with the lignans matairesinol (as a reference compound) and enterolactone (1–100μM) or interleukin 10 (IL-10) (100 U/ml) for 24 hours before addition of LPS (1 μg/ml) into cell culture. After additional 48 hours the levels of TNF- from culture supernatants were measured by ELISA.

Monocytes [3] = conditions: 1200 IU per day for 8 weeks, healthy volunteers; cited from earlier work

Structure (SMILES): COc1ccccc1OCCNCC(O)COc1cccc2[nH]c3ccccc3c12 (stereo not shown) [carvedilol]
- decrease of reactive oxygen production by mononuclear cells (mononuclear cells): 62%
- decrease of reactive oxygen production by neutrophils (neutrophils): 59%

Structure (SMILES): COc1cc(CC2C(=O)OCC2C(O)c2ccc(O)c(OC)c2)ccc1O (stereo not shown) [Hydroxymatairesinol, hydroxymatairesinol]
- IC50 (human neutrophils; Neutrophil): 5.3 µM
- IC50 (Myeloperoxidase): 6.8 µM
- Fas surface expression [1]: elevated level of Fas protein

Structure (SMILES): COc1cc(C[C@H]2COC(=O)[C@@H]2Cc2ccc(O)c(OC)c2)ccc1O [Matairesinol, matairesinol]
- IC50 (human neutrophils; Neutrophil): 11 µM
- IC50 (Myeloperoxidase): 44.5 µM
- LPS-induced TNF-α production compared with positive control IL-10 (Monocytes [2]): at least as effective
- Fas surface expression [1]: elevated level of Fas protein

Structure (SMILES): CC(=O)C(=Cc1cc(O)c(O)c([N+](=O)[O-])c1)C(C)=O [Nitecapone, nitecapone, reference compound]
- IC50 (human neutrophils; Neutrophil): 7.5 µM
- IC50 (Myeloperoxidase): 2.3 µM

Structure (SMILES): Cc1c(C)c2c(c(C)c1O)CC[C@@](C)(CCC[C@H](C)CCC[C@H](C)CCCC(C)C)O2 [alpha-tocopherol]
- decrease in reactive oxygen production by monocytes (Monocytes [3]): 50%–60

Structure (SMILES): CN(C)CCOc1ccc(/C(=C(/CCCl)c2ccccc2)c2ccc(O)cc2)cc1 [4-OH-toremifene, reference compound]
- IC50 (human neutrophils): 1.7 µM
- IC50 (Myeloperoxidase): 54 µM

Structure (SMILES): O=C1OC[C@H](Cc2cccc(O)c2)[C@H]1Cc1cccc(O)c1 [enterolactone]
- LPS-induced TNF-α production compared with positive control IL-10 (Monocytes [2]): at least as effective
- Fas surface expression [1]: elevated level of Fas protein

From patent US7008666B2, “Method of inhibiting overactivity of phagocytes or lymphocytes in an individual” (Hormos Nutraceutical Oy Ltd., priority 2001, dated 2006)
